Source: US8436012B2, “Imidazopyridin-2-one derivatives” (Daiichi Sankyo Company, Limited, priority 2008, dated 2013)

Tests used:
[1] = tested on: WM-266-4 cells; experiment: Cell Proliferation Inhibitory Test; assay type: cell-based; conditions: Homo sapiens, 72 h, cultured three days with test compound, MTT, read-out: 50% cell proliferation inhibitory activity (GI50 value)
Procedure, shortened: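 Cells cultured overnight, then exposed to serially diluted compound for three days; cell amount read by MTT. GI50 solved from 100×[(T−T0)/(C−T0)]=50, with T0 the value at time of compound addition and C the untreated three-day control.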

[2] = target: T1, human mTOR (Homo sapiens, UniProt P42345); experiment: mTOR Kinase Activity Inhibition Test; assay type: biochemical; conditions: His-tagged mTOR (1362C), biotinylated peptide substrate, ATP, 3 hours at room temperature, fluorescence resonance energy transfer 665 nm/620 nm; read-out: IC50 value of mTOR enzyme inhibitory activity
T1 construct: the portion corresponding to 1362-2549aa at the C terminus of human mTOR; made in house
Procedure, shortened: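 Purified His-tagged human mTOR (1362–2549aa, from HEK293) was used with biotinylated peptide (8 μg/mL in enzyme solution) in HEPES pH 7.5 with 20 mM MnCl2. Compounds were diluted in 20 μM ATP solution, and the reaction ran 3 h at RT. Phospho-S6K(Thr389) HTRF was read as the 665/620 nm ratio, and IC50 came from % inhibition versus controls.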

T1 sequence (P42345 1362-2549): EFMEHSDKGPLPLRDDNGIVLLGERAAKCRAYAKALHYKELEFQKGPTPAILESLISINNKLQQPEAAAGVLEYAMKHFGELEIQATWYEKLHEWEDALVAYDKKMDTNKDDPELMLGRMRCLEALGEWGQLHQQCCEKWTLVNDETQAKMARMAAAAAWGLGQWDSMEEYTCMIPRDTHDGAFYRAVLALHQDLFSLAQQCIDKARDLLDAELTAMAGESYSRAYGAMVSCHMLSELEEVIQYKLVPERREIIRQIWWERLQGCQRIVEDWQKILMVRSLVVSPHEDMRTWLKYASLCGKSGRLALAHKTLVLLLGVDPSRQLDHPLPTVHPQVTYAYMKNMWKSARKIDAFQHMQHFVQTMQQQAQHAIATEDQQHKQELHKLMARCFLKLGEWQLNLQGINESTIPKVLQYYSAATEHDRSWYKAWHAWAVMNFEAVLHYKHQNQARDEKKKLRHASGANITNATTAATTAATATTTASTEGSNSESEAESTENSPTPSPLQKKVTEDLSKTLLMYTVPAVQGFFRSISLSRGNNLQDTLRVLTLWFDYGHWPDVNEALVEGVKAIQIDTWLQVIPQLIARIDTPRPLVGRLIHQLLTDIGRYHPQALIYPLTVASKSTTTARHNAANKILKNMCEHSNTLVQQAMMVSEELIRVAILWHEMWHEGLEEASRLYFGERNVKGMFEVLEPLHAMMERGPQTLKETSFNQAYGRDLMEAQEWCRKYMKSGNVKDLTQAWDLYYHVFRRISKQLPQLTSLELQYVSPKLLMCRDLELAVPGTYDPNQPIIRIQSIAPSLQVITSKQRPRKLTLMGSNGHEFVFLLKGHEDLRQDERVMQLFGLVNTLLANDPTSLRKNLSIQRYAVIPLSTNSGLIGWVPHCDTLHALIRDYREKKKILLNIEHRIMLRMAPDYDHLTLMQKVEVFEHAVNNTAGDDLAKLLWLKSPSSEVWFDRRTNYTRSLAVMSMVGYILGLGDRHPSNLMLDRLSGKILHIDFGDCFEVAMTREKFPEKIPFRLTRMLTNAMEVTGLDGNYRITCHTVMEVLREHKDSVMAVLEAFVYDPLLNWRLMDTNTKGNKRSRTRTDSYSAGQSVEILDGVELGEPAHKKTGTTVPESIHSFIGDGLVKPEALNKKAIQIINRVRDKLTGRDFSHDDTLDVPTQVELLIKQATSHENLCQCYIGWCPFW

| SMILES | IC50 [2] [nM] | GI50 [1] [nM] |
| --- | --- | --- |
| CC(=O)N1CCN(CCn2c(=O)[nH]c3ncc(-c4cnc5[nH]ccc5c4)cc32)CC1 [Example 59, 1-[2-(4-Acetylpiperazin-1-yl)ethyl]-6-(1H-pyrrolo[2,3-b]pyridin-5-yl)-1,3-dihydro-2H-imidazo[4,5-b]pyridin-2-one] | < 50 | 3000 to 25000 |
| CS(=O)(=O)N1CCN(CCn2c(=O)[nH]c3ncc(-c4cnc5[nH]ccc5c4)cc32)CC1 [Example 60, 1-{2-[4-(Methylsulfonyl)piperazin-1-yl]ethyl}-6-(1H-pyrrolo[2,3-b]pyridin-5-yl)-1,3-dihydro-2H-imidazo[4,5-b]pyridin-2-one] | < 50 | < 3000 |
| COC1(Cn2c(=O)[nH]c3ncc(-c4cnc5[nH]ccc5c4)cc32)CCOCC1 [Example 68, 1-[(4-Methoxytetrahydro-2H-pyran-4-yl)methyl]-6-(1H-pyrrolo[2,3-b]pyridin-5-yl)-1,3-dihydro-2H-imidazo[4,5-b]pyridin-2-one] | < 50 | < 3000 |
| O=c1[nH]c2ncc(-c3cnc4[nH]ccc4c3)cc2n1CC1(F)CCOCC1 [Example 69, 1-[(4-Fluorotetrahydro-2H-pyran-4-yl)methyl]-6-(1H-pyrrolo[2,3-b]pyridin-5-yl)-1,3-dihydro-2H-imidazo[4,5-b]pyridin-2-one] | < 50 | < 3000 |
| C[C@@H]1C[C@H](Cn2c(=O)[nH]c3ncc(-c4cnc5[nH]ccc5c4)cc32)C[C@H](C)O1 [Example 71, 1-{[(2R-4r-6S)-2,6-Dimethyltetrahydro-2H-pyran-4-yl]methyl}-6-(1H-pyrrolo-[2,3-b]pyridin-5-yl)-1,3-dihydro-2H-imidazo[4,5-b]pyridin-2-one] | < 50 | < 3000 |
| O=c1[nH]c2ncc(-c3cnc4ccnn4c3)cc2n1CC1CCOCC1 [Example 73, 6-Pyrazolo[1,5-a]pyrimidin-6-yl-1-(tetrahydro-2H-pyran-4-ylmethyl)-1,3-dihydro-2H-imidazo[4,5-b]pyridin-2-one] | 100 to 5000 | 3000 to 25000 |
| O=Cc1c[nH]c2ccc(-c3cnc4[nH]c(=O)n(CC5CCOCC5)c4c3)cc12 [Example 81, 5-[2-Oxo-1-(tetrahydro-2H-pyran-4-ylmethyl)-2,3-dihydro-1H-imidazo[4,5-b]pyridin-6-yl]-1H-indole-3-carbaldehyde] | < 50 | < 3000 |
| O=c1[nH]c2ncc(-c3cnc4[nH]cc(C(F)(F)F)c4c3)cc2n1CC1CCOCC1 [Example 84, 1-(Tetrahydro-2H-pyran-4-ylmethyl)-6-[3-(trifluoromethyl)-1H-pyrrolo[2,3-b]pyridin-5-yl]-1,3-dihydro-2H-imidazo[4,5-b]pyridin-2-one] | < 50 | 3000 to 25000 |
| CCOCc1cc2cc(-c3cnc4[nH]c(=O)n(CC5CCOCC5)c4c3)cnc2[nH]1 [Example 86, 6-[2-(Ethoxymethyl)-1H-pyrrolo[2,3-b]pyridin-5-yl]-1-(tetrahydro-2H-pyran-4-ylmethyl)-1,3-dihydro-2H-imidazo[4,5-b]pyridin-2-one] | 100 to 5000 | 3000 to 25000 |
| Cc1[nH]c2ncc(-c3cnc4[nH]c(=O)n(CC5CCOCC5)c4c3)cc2c1C [Example 87, 6-(2,3-Dimethyl-1H-pyrrolo[2,3-b]pyridin-5-yl)-1-(tetrahydro-2H-pyran-4-ylmethyl)-1,3-dihydro-2H-imidazo[4,5-b]pyridin-2-one] | 100 to 5000 | 3000 to 25000 |
| CN(C)Cc1c[nH]c2ncc(-c3cnc4[nH]c(=O)n(CC5CCOCC5)c4c3)cc12 [Example 89, 6-{3-[(Dimethylamino)methyl]-1H-pyrrolo[2,3-b]pyridin-5-yl}-1-(tetrahydro-2H-pyran-4-ylmethyl)-1,3-dihydro-2H-imidazo[4,5-b]pyridin-2-one] | 100 to 5000 | 3000 to 25000 |
| CC(C)c1c[nH]c2ncc(-c3cnc4[nH]c(=O)n(CC5CCOCC5)c4c3)cc12 [Example 90, 6-{3-Isopropyl-1H-pyrrolo[2,3-b]pyridin-5-yl}-1-(tetrahydro-2H-pyran-4-ylmethyl)-1,3-dihydro-2H-imidazo[4,5-b]pyridin-2-one] | < 50 | < 3000 |
| CCOC(=O)c1c[nH]c2ncc(-c3cnc4[nH]c(=O)n(CC5CCOCC5)c4c3)cc12 [Example 92, Ethyl 5-[2-oxo-1-(tetrahydro-2H-pyran-4-ylmethyl)-2,3-dihydro-1H-imidazo[4,5-b]pyridin-6-yl]-1H-pyrrolo[2,3-b]pyridine-3-carboxylate] | < 50 | < 3000 |
| CNC(=O)c1c[nH]c2ncc(-c3cnc4[nH]c(=O)n(CC5CCOCC5)c4c3)cc12 [Example 94, N-Methyl-5-[2-oxo-1-(tetrahydro-2H-pyran-4-ylmethyl)-2,3-dihydro-1H-imidazo[4,5-b]pyridin-6-yl]-1H-pyrrolo[2,3-b]pyridine-3-carboxamide] | 100 to 5000 | 3000 to 25000 |

Second part, led by results:

| IC50 [2] [nM] | SMILES | GI50 [1] [nM] |
| --- | --- | --- |
| < 50 | Nc1n[nH]c2ccc(-c3cnc4[nH]c(=O)n(CC5CCOCC5)c4c3)cc12 [Example 72, 6-(3-Amino-1H-indazol-5-yl)-1-(tetrahydro-2H-pyran-4-ylmethyl)-1,3-dihydro-2H-imidazo[4,5-b]pyridin-2-one] | 3000 to 25000 |
| 100 to 5000 | O=c1[nH]c2ncc(-c3cnc4[nH]ncc4c3)cc2n1CC1CCOCC1 [Example 74, 6-(1H-Pyrazolo[3,4-b]pyridin-5-yl)-1-(tetrahydro-2H-pyran-4-ylmethyl)-1,3-dihydro-2H-imidazo[4,5-b]pyridin-2-one] | 3000 to 25000 |
| 50 to 100 | O=c1[nH]c2ncc(-c3cnc4[nH]ccc4n3)cc2n1CC1CCOCC1 [Example 75, 6-(5H-Pyrrolo[2,3-b]pyrazin-2-yl)-1-(tetrahydro-2H-pyran-4-ylmethyl)-1,3-dihydro-2H-imidazo[4,5-b]pyridin-2-one] | < 3000 |
| < 50 | O=c1[nH]c2ncc(-c3cc4cc[nH]c4nn3)cc2n1CC1CCOCC1 [Example 76, 6-(7H-Pyrrolo[2,3-c]pyridazin-3-yl)-1-(tetrahydro-2H-pyran-4-ylmethyl)-1,3-dihydro-2H-imidazo[4,5-b]pyridin-2-one] | 3000 to 25000 |
| 50 to 100 | Nc1c[nH]c2ncc(-c3cnc4[nH]c(=O)n(CC5CCOCC5)c4c3)cc12 [Example 77, 6-(3-Amino-1H-pyrrolo[2,3-b]pyridin-5-yl)-1-(tetrahydro-2H-pyran-4-ylmethyl)-1,3-dihydro-2H-imidazo[4,5-b]pyridin-2-one] | 3000 to 25000 |
| < 50 | O=c1[nH]c2ncc(-c3cc4cc[nH]c4nc3Cl)cc2n1CC1CCOCC1 [Example 78, 6-(6-Chloro-1H-pyrrolo[2,3-b]pyridin-5-yl)-1-(tetrahydro-2H-pyran-4-ylmethyl)-1,3-dihydro-2H-imidazo[4,5-b]pyridin-2-one] | < 3000 |
| < 50 | O=c1[nH]c2ncc(-c3cc4cc[nH]c4nc3F)cc2n1CC1CCOCC1 [Example 79, 6-(6-Fluoro-1H-pyrrolo[2,3-b]pyridin-5-yl)-1-(tetrahydro-2H-pyran-4-ylmethyl)-1,3-dihydro-2H-imidazo[4,5-b]pyridin-2-one] | < 3000 |
| < 50 | O=c1[nH]c2ncc(-c3ccc4[nH]ccc4n3)cc2n1CC1CCOCC1 [Example 82, 6-(1H-Pyrrolo[3,2-b]pyridin-5-yl)-1-(tetrahydro-2H-pyran-4-ylmethyl)-1,3-dihydro-2H-imidazo[4,5-b]pyridin-2-one] | < 3000 |
| < 50 | O=c1[nH]c2ncc(-c3cc4cc[nH]c4cn3)cc2n1CC1CCOCC1 [Example 83, 6-(1H-Pyrrolo[2,3-c]pyridin-5-yl)-1-(tetrahydro-2H-pyran-4-ylmethyl)-1,3-dihydro-2H-imidazo[4,5-b]pyridin-2-one] | < 3000 |
| 100 to 5000 | CC(=O)c1c[nH]c2ncc(-c3cnc4[nH]c(=O)n(CC5CCOCC5)c4c3)cc12 [Example 85, 6-(3-Acetyl-1H-pyrrolo[2,3-b]pyridin-5-yl)-1-(tetrahydro-2H-pyran-4-ylmethyl)-1,3-dihydro-2H-imidazo[4,5-b]pyridin-2-one] | 3000 to 25000 |
| 100 to 5000 | O=c1[nH]c2ncc(-c3cnc4cc[nH]c4c3)cc2n1CC1CCOCC1 [Example 88, 6-(1H-Pyrrolo[3,2-b]pyridin-6-yl)-1-(tetrahydro-2H-pyran-4-ylmethyl)-1,3-dihydro-2H-imidazo[4,5-b]pyridin-2-one] | < 3000 |
| 100 to 5000 | N#Cc1c(-c2cnc3[nH]c(=O)n(CC4CCOCC4)c3c2)cnc2[nH]ccc12 [Example 91, 5-[2-Oxo-1-(tetrahydro-2H-pyran-4-ylmethyl)-2,3-dihydro-1H-imidazo[4,5-b]pyridin-6-yl]-1H-pyrrolo[2,3-b]pyridine-4-carbonitrile] | < 3000 |
| < 50 | O=C(O)c1c[nH]c2ncc(-c3cnc4[nH]c(=O)n(CC5CCOCC5)c4c3)cc12 [Example 93, 5-[2-oxo-1-(tetrahydro-2H-pyran-4-ylmethyl)-2,3-dihydro-1H-imidazo[4,5-b]pyridin-6-yl]-1H-pyrrolo[2,3-b]pyridine-3-carboxylic acid] | 3000 to 25000 |
| < 50 | N#Cc1c[nH]c2ncc(-c3cnc4[nH]c(=O)n(CC5CCOCC5)c4c3)cc12 [Example 95, 5-[2-Oxo-1-(tetrahydro-2H-pyran-4-ylmethyl)-2,3-dihydro-1H-imidazo[4,5-b]pyridin-6-yl]-1H-pyrrolo[2,3-b]pyridine-3-carbonitrile] | 3000 to 25000 |
